Assay results as given in PubChem BioAssay (NCI).
Converted amounts (≈) assume the structure as drawn. “And” between values parts separate entries of the source, which are not always exact repeats. Identical values can stand only once.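 In this assay, cells in 96-well plates receive the compound at five concentrations for 48 hours. Endpoints are linearly interpolated between the surrounding concentrations. GI50 is the concentration that inhibits growth by half. TGI: concentration producing complete growth inhibition.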

What was measured:
Test in all cases: DTP human tumour cell line panel, 48 h
[1] = test system: 786-0 renal
[2] = test system: ACHN renal
[3] = test system: DU-145 prostate
[4] = test system: HOP-62 NSCLC
[5] = test system: LOX IMVI melanoma
[6] = test system: M14 melanoma
[7] = test system: OVCAR-3 ovarian
[8] = test system: OVCAR-5 ovarian
[9] = test system: OVCAR-8 ovarian
[10] = test system: SK-MEL-2 melanoma

Compound | TGI [1] | TGI [2] | TGI [3] | TGI [4] | TGI [5] | TGI [6] | TGI [7] | TGI [8] | TGI [9] | TGI [10] | GI50 [2] | GI50 [3] | GI50 [4] | GI50 [5] | GI50 [6] | GI50 [7] | GI50 [8] | GI50 [9] | GI50 [10]
NC(=O)N/N=C(/CC1C(=O)Oc2ccccc21)c1ccccc1O (stereo not given) | > 100 µM | > 100 µM | > 100 µM | > 100 µM | 41.5 µM | > 100 µM | > 100 µM | > 100 µM | > 100 µM | > 100 µM | – | – | – | – | – | – | – | – | –
O=C(O)Cc1ccc(Nc2nc3cc(C(F)(F)F)ccc3nc2C(=O)O)cc1 | > 100 µM | > 100 µM | > 100 µM | > 100 µM | > 100 µM | > 100 µM | > 100 µM | > 100 µM | > 100 µM | > 100 µM | – | – | – | – | – | – | – | – | –
OC1(c2ccc(-c3ccccc3)cc2)c2ccccc2C2=NCCN21 (stereo not given) | 33.1 µM | 43.9 µM | > 100 µM | 43.5 µM | > 100 µM | – | 63.6 µM | – | – | 24.9 µM | – | – | – | – | – | – | – | – | –
CS(=O)(=O)c1nc(-c2cc3c(c(S(C)(=O)=O)n2)CCCC3)cc2c1CCCCC2 | > 100 µM | > 100 µM | > 100 µM | > 100 µM | – | > 100 µM | > 100 µM | > 100 µM | > 100 µM | > 100 µM | – | – | – | – | – | – | – | – | –
COC(=O)CCC1=C(CC(=O)OC)C(C)(OC)N=C1NC(=O)OCc1ccccc1 (stereo not given) | > 100 µM | > 100 µM | > 100 µM | > 100 µM | > 100 µM | > 100 µM | – | > 100 µM | > 100 µM | > 100 µM | – | – | – | – | – | – | – | – | –
O=C(O)C(O)C(O)C(=O)O (stereo not given) | > 100 µM | > 100 µM | > 100 µM | > 100 µM | > 100 µM | > 100 µM | > 100 µM | > 100 µM | > 100 µM | > 100 µM | – | – | – | – | – | – | – | – | –
CC(=O)c1c(C)nc(SSc2nc(C)c(C(C)=O)c(-c3ccc(Cl)cc3)c2C#N)c(C#N)c1-c1ccc(Cl)cc1 | – | > 150 mg/L | > 150 mg/L | > 150 mg/L | > 150 mg/L | > 150 mg/L | > 150 mg/L | > 150 mg/L | > 150 mg/L | – | 76.9 mg/L | 140 mg/L | 47.5 mg/L | 49.2 mg/L (≈ 81.6 µM) | 81.5 mg/L (≈ 135 µM) | 59.9 mg/L (≈ 99.2 µM) | > 150 mg/L | 79.2 mg/L | –
COC(CN(C(C)=O)C1CCC2(SCCS2)c2[nH]c3ccccc3c21)OC (stereo not given) | > 100 µM | > 100 µM | > 100 µM | > 100 µM | 1.71 µM | > 100 µM | > 100 µM | > 100 µM | > 100 µM | > 100 µM | – | – | – | – | – | – | – | – | –
CCOC(=O)c1[nH]c(Br)c(-c2ccc(OC)c(OC)c2)c1Br | 11.7 µM | 22.6 µM | 4.65 µM and 18.3 µM | 14.8 µM | – | 16 µM | – | 63.3 µM | 36.8 µM | 20.2 µM | 0.239 µM | 0.0155 µM | 0.0253 µM | – | – | – | 20.3 µM | 0.0511 µM | 0.0152 µM
[N-]=[N+]=NC1OC(=O)C(Cl)=C1N=P(c1ccccc1)(c1ccccc1)c1ccccc1 (stereo not given) | > 10 µM | > 10 µM | > 10 µM | > 10 µM | > 10 µM | > 10 µM | > 10 µM | > 10 µM | > 10 µM | > 10 µM | – | – | – | – | – | – | – | – | –
Cc1cc2/c(=C\c3ccc(N(C)C)cc3)c3ccccc3n2[n+]1C | 8.77 µM | 10 µM | 4.16 µM | 8.45 µM | 2.59 µM | 3.73 µM | 2.63 µM | 21.3 µM | 1.78 µM | 2.08 µM | – | – | – | – | – | – | – | – | –
CCOC(=O)C1=C(O)C2C3CC4C2C(O)=C(C(=O)OCC)C2C1C3C42 (stereo not given) | > 100 µM | > 100 µM | > 100 µM | > 100 µM | > 100 µM | > 100 µM | > 100 µM | > 100 µM | > 100 µM | > 100 µM | – | – | – | – | – | – | – | – | –
COc1c(/C=C/C(C)(C)O)cc(C2CC(=O)c3c(O)cc(O)cc3O2)cc1CC=C(C)C (stereo not given) | 18.1 µM | 14.3 µM | 17.4 µM | – | 11.6 µM | 16 µM | – | 16.5 µM | 23.1 µM | 15.6 µM | – | – | – | – | – | – | – | – | –
CN(C(=O)Cc1ccccc1)n1cnn(CC(=O)OC(C)(C)C)c1=S | > 10 µM | > 10 µM | > 10 µM | > 10 µM | > 10 µM | > 10 µM | > 10 µM | > 10 µM | > 10 µM | – | – | – | – | – | – | – | – | – | –
Cc1ccc(/C=N/n2c(-c3ccc(C)cc3)n[nH]c2=O)cc1 | > 100 µM | > 100 µM | > 100 µM | > 100 µM | – | > 100 µM | > 100 µM | > 100 µM | > 100 µM | > 100 µM | – | – | – | – | – | – | – | – | –
O=C(c1nc2ccc([N+](=O)[O-])cc2[nH]c1=O)C(O)c1ccc2c(c1)OCO2 (stereo not given) | > 100 µM | > 100 µM | > 100 µM | > 100 µM | > 100 µM | > 100 µM | > 100 µM | > 100 µM | > 100 µM | > 100 µM | – | – | – | – | – | – | – | – | –
Cc1ccc(SC2C(=O)C3CC(OCc4ccccc4)C2(C)C3(C)C)cc1 (stereo not given) | > 100 µM | > 100 µM | > 100 µM | > 100 µM | – | > 100 µM | > 100 µM | > 100 µM | > 100 µM | > 100 µM | – | – | – | – | – | – | – | – | –
COc1cc2c(cc1OC)C(=O)N(c1ccc(O)cc1)C2=O | > 100 µM | > 100 µM | > 100 µM | > 100 µM | > 100 µM | > 100 µM | > 100 µM | > 100 µM | > 100 µM | > 100 µM | – | – | – | – | – | – | – | – | –
COC(=O)C1Cc2cc3c(cc2C1=O)CCCC3 (stereo not given) | > 100 µM | > 100 µM | > 100 µM | > 100 µM | > 100 µM | > 100 µM | > 100 µM | > 100 µM | > 100 µM | > 100 µM | – | – | – | – | – | – | – | – | –
Cc1nc(CC#N)n[nH]1 | > 100 µM | > 100 µM | > 100 µM | > 100 µM | > 100 µM | > 100 µM | > 100 µM | > 100 µM | > 100 µM | > 100 µM | – | – | – | – | – | – | – | – | –
C#C/C=C\CCCC/C=C\C#CC#CCCCC#CC#C[C@H](COS(=O)(=O)O)OS(=O)(=O)O | > 100 µM | > 100 µM | > 100 µM | > 100 µM | > 100 µM | > 100 µM | > 100 µM | > 100 µM | > 100 µM | > 100 µM | – | – | – | – | – | – | – | – | –
